# Values quoted from earlier work in US20050250674A1, “Nutritional and food supplement preparation comprising creatine and orotic acid complexes, derivatives and analogs” (priority 2004, published 2005).
# Conditions: oral ingestion of about 20 to 30 g per day, divided between several doses, for several days
smiles,measurement,value
"CN(CC(=O)O)C(=N)N [creatine, methyl guanidine-acetic acid]",increase in human skeletal muscle total creatine content,greater than 20%
